Results: the supplement of paper PMC10307832

compound: CCN1CCN(c2ccc(Nc3cc(N(C)C(=O)Nc4c(Cl)c(OC)cc(OC)c4Cl)ncn3)cc2)CC1 [BGJ398] + COc1cccc2cc(-c3nc([C@H]4CC[C@H](C(=O)O)CC4)n4ncnc(N)c34)[nH]c12 [OSI-027] (partner 0.5 µM); assay: relative viability (nuclei count vs DMSO), 5 days (fraction); higher = more cells survive; conditions: first compound 0.01 µM
Method in brief: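 Lung cancer cell lines in 1536-well plates were dosed by pin tool the day after seeding, either with one drug alone or with a fixed anchor-drug dose plus five library-drug doses (not always all listed) in √10 steps. After 5 days, cells were fixed and their nuclei stained in one step (final 0.05% Triton X-100, 1% formaldehyde, 1 ug/ml Hoechst), then counted on 4× images. Relative viability is the nuclei count in treated wells divided by that in vehicle wells. Values are medians of duplicate plates.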

Cell Line	relative viability
LU99A	0.268
BEN	0.319
HARA	0.422
HCC-78	0.369
NCI-H322M	0.531
LCLC-97TM1	0.381
NCI-H2009	0.553
A-427	0.375
NCI-H661	0.618
NCI-H1734	0.589
NCI-H460	0.63
NCI-H2347	0.228
SK-LU-1	0.333
201T	0.781
NCI-H1915	0.59
HCC-827	0.633

Cell Line	relative viability
LXF-289	0.708
NCI-H23	0.588
NCI-H647	0.554
CAL-12T	0.539
NCI-H1651	0.562
EPLC-272H	0.283
NCI-H2228	0.525
NCI-H1792	0.684
NCI-H1355	0.356
NCI-H3122	0.91
NCI-H1437	0.807
NCI-H1755	0.598
NCI-H2023	0.364
HCC-15	0.689
PC-14	0.781
EKVX	0.628

same assay, conditions: first compound 0.03162 µM

Cell Line	relative viability
LU99A	0.284
BEN	0.259
HARA	0.32
HCC-78	0.348
NCI-H322M	0.542
LCLC-97TM1	0.578
NCI-H2009	0.73
A-427	0.365
NCI-H661	0.723
NCI-H1734	0.645
NCI-H460	0.733
NCI-H2347	0.557
SK-LU-1	0.4
201T	0.825
NCI-H1915	0.614
LXF-289	0.795

Cell Line	relative viability
NCI-H23	0.726
NCI-H647	0.765
CAL-12T	0.773
NCI-H1651	0.661
EPLC-272H	0.279
NCI-H2228	0.535
NCI-H1792	0.731
NCI-H1355	0.408
NCI-H3122	1
NCI-H1437	0.867
NCI-H1755	0.852
NCI-H2023	0.462
HCC-15	0.72
PC-14	0.16
EKVX	0.679

same assay, conditions: first compound 0.1 µM

Cell Line	relative viability
LU99A	0.281
BEN	0.279
HARA	0.506
HCC-78	0.346
NCI-H322M	0.627
LCLC-97TM1	0.464
NCI-H2009	0.653
A-427	0.309
NCI-H661	0.766
NCI-H1734	0.675
NCI-H460	0.81
NCI-H2347	0.447
SK-LU-1	0.362
201T	0.793
NCI-H1915	0.62
HCC-827	0.754

Cell Line	relative viability
LXF-289	0.806
NCI-H23	0.692
NCI-H647	0.724
CAL-12T	0.83
NCI-H1651	0.728
EPLC-272H	0.248
NCI-H2228	0.67
NCI-H1792	0.762
NCI-H1355	0.428
NCI-H3122	0.941
NCI-H1437	0.873
NCI-H1755	0.749
NCI-H2023	0.46
HCC-15	0.693
PC-14	1.07
EKVX	0.72

same assay, conditions: first compound 0.3162 µM

Cell Line	relative viability
LU99A	0.308
BEN	0.266
HARA	0.358
HCC-78	0.349
NCI-H322M	0.495
LCLC-97TM1	0.567
NCI-H2009	0.633
A-427	0.235
NCI-H661	0.752
NCI-H1734	0.579
NCI-H460	0.642
NCI-H2347	0.413
SK-LU-1	0.272
201T	0.636
NCI-H1915	0.582
HCC-827	0.547

Cell Line	relative viability
LXF-289	0.768
NCI-H23	0.518
NCI-H647	0.638
CAL-12T	0.673
NCI-H1651	0.635
EPLC-272H	0.241
NCI-H2228	0.501
NCI-H1792	0.581
NCI-H1355	0.413
NCI-H3122	1
NCI-H1437	0.865
NCI-H1755	0.779
NCI-H2023	0.41
HCC-15	0.675
PC-14	0.464
EKVX	0.703

same assay, conditions: first compound 1 µM

Cell Line	relative viability
LU99A	0.332
BEN	0.276
HARA	0.439
HCC-78	0.366
NCI-H322M	0.501
LCLC-97TM1	0.528
NCI-H2009	0.685
A-427	0.285
NCI-H661	0.742
NCI-H1734	0.702
NCI-H460	0.719
NCI-H2347	0.434
SK-LU-1	0.35
201T	0.564
NCI-H1915	0.687
HCC-827	0.847

Cell Line	relative viability
LXF-289	0.799
NCI-H23	0.569
NCI-H647	0.536
CAL-12T	0.491
NCI-H1651	0.709
EPLC-272H	0.293
NCI-H2228	0.717
NCI-H1792	0.416
NCI-H1355	0.315
NCI-H3122	1.05
NCI-H1437	0.926
NCI-H1755	0.698
NCI-H2023	0.395
HCC-15	0.554
PC-14	1.07
EKVX	0.69
